Laboratory results as given in US8652439B2, “Compositions of HSP60 peptides and viral antigens for vaccination and diagnosis” (priority 2005, dated 2014).
Entries after “also recorded” stand apart in the source; their conditions may differ.

Key:
MCMV [1] = assay: Infectious MCMV titers in salivary gland of immunized mice after MCMV challenge (plaque assay); assay type: in vivo, BALB/c mice; settings: for Infectious MCMV titer in salivary gland: immunized twice, peptides in IFA
splenocytes = assay: Proliferation of splenocytes from mice immunized with p15 conjugates, stimulated in vitro with p15; assay type: in vivo; settings: spleens 10 days after immunization; p15 25 μg/ml, 3 days
Experimental: (§1) Mice were immunized with the following peptides as described in Example 8 using the following peptides: p15 (SEQ ID NO:11), p32 (SEQ ID NO:13), Ec27-p15 ([…], SEQ ID NO:77), and Mock-p15 ([…], SEQ ID NO:80—the p431 peptide fused to p15).
(§2) Spleens were harvested 10 days after the immunization and splenocytes were cultured with p15 (25 μg/ml) for 3 days. Cell proliferation and IFNγ levels in the supernatants of spleen cell cultures were measured. Results are the average of 3 independent proliferation experiments. Ec27-Ep15* and Ec27-Ep15** are two identical but independent groups in the same experiment.

IFN-γ = IFN-γ secretion of splenocytes from mice immunized with p15 conjugates, stimulated in vitro with p15; assay type: in vivo; settings: spleens 10 days after immunization; p15 25 μg/ml, 3 days
Experimental: as §1, §2

[2] = test system: sera from WNV-exposed human subjects; assay: ELISA recognition of WNV peptides by human sera; assay type: binding; settings: for Recognition by sera of WNV-exposed and unexposed human subjects: ELISA, peptide as antigen
Experimental: Sera from WNV-exposed and non-exposed human subjects was assayed for antibodies recognizing the novel WNV peptide antigens, p15 (SEQ ID NO:11) and p17 (SEQ ID NO:21). FIG. 17 presents the results of an ELISA test in which the p15 and p17 served as the antigen, human sera were used as the primary antibody and HRP-conjugated anti-human Abs were used as the secondary antibody. RLU are the relative luminescence units produced by HRP activity on the luminal substrate.
Sera S2 and S6 are from human that were not infected with WNV while sera S1, S3-S5 and S7 are from human that had history of WNV infection.

MCMV gB DNA = assay: PCR of MCMV gB DNA in salivary glands of immunized, MCMV-challenged mice; assay type: in vivo, BALB/c mice; settings: day 28 after MCMV challenge
IFNγ = IFNγ ELISA of spleen and salivary gland cell cultures after vaccination; assay type: in vivo, BALB/c mice; settings: 10 days after single immunization; for IFNγ secretion of spleen cells stimulated in vitro with p458: 3 d stimulation with p458
IL-4 = IL-4 ELISA of spleen cell cultures after vaccination; assay type: in vivo, BALB/c mice; settings: spleen cell cultures of immunized mice
[3] = test system: IFNγ-positive spleen cells; assay: FACS intracellular IFNγ staining of spleen cells after vaccination; assay type: in vivo, BALB/c mice; settings: 7 days after one immunization; 5 days re-stimulation with 89pep
Experimental: For phenotypic analysis, spleen and salivary gland mononuclear cells of MCMV-infected and naïve mice were cultured as described above and were stained for CD8 and CD4, IFNγ and IL-5 using directly-labeled antibodies (PharMingen, San Diego, Calif.). Intracellular cell staining (ICCS) for IFNγ, IL-4 and IL-5 was performed using PharMingen's Cytofix/Cytoperm Plus kit with GolgiPlug (containing Brefeldin A) according to the manufacturer's instructions. Briefly, GolgiPlug was added to the 8 h-incubated immune cell cultures (established as described above, with or w/o peptide stimulation). After the additional 6 h of incubation in the incubator cells (minimum 10^6 per sample) were harvested, washed in PBS supplemented with 2% FBS and 0.09% Sodium azide, and incubated in 50 μl of FC blocker, labeled with anti-CD4 and anti-CD8 surface markers. Then cells were fixed, permeabilized and treated with anti-IFNγ, anti-IL-4 or anti-IL-5 antibodies for intracellular cytokine detection. Stained cells were immediately analyzed on a FACSCalibur flow cytometer (Becton-Dickinson, Mansfield, Mass.) and 50,000 to 100,000 events/sample were acquired and analyzed with CellQuest software.
We characterized the nature of cells secreting the IFNγ by flow cytometry. Mice were immunized once with the different peptides and an additional group was infected with MCMV. Seven days later, spleens were removed and cell suspensions were cultured for 5 days with or without 89pep. […] Infection with MCMV and re-stimulation with 89pep induced the highest percentage of IFNγ^+CD8^+ T cells (FIG. 5B). Staining was specific to IFNγ since no CD8^+IL-4^+ or CD8^+IL-5^+ cells were observed.

[4] = test system: P815 cells pulsed with the 89pep; assay: Cytotoxic T cell assay of spleen cell cultures after vaccination; assay type: in vivo, BALB/c mice; settings: spleens 7 d after one immunization, 6 days re-stimulation with 89pep; P815 loaded with 89pep
Experimental: The cytotoxic activity against the MCMV 89pep was assessed in a 4-h cytotoxic assay using the CytoTox 96 non-radioactive, colorimetric-based kit (Promega, Madison, Wis.), according to manufacturer instructions. This assay is based on the quantitative measurement of lactate dehydrogenase, a stable cytosolic enzyme that is released upon cell lysis. Spleen cell suspensions from immunized mice, prepared as described above, were re-stimulated in vitro for 6 days with 89pep (10 μg/ml) and rhIL-2 (25 IU/ml) from day 2. Target cells for the lysis assay were P815 cells (mastocytoma, H-2^d). P815 were either non-pulsed or pulsed with 89pep (1 μg/ml) for 2 h and then washed before incubation with effector cells. In all experiments shown, the spontaneous release was less than 25% of maximal release. Each point in a lysis assay represents the average of triplicate values. The range of the triplicates was within 5% of their mean.
We also investigated whether the CD8^+IFNγ^+ cells induced by the p458-89pep were able to lyse specifically 89pep-loaded target cells. Mice were immunized once and 7 d later, spleens were harvested and re-stimulated with 89pep. Six days later, lytic activity was assayed on P815 (H-2^d) loaded with the 89pep. […]

[5] = test system: salivary gland mononuclear cells; assay: IFNγ-positive salivary gland mononuclear cells 28 days after MCMV challenge of vaccinated mice; assay type: in vivo, BALB/c mice; settings: 28 days after virus challenge of immunized mice; 8 hr 89pep stimulation
MCMV [6] = assay: Immunization after MCMV challenge in combination with Gancyclovir; MCMV-DNA PCR in salivary glands; assay type: in vivo, BALB/c mice; settings: day 30 after challenge; GCV i.p. with or without one immunization on day 6
Experimental: DNA was extracted from naïve and infected spleens and salivary gland using QiAmp Tissue Kit (QIAGEN Inc. Chatsworth, Calif., USA), according to appropriate QiAmp protocols. DNA oligonucleotide primers were synthesized according to the published sequence of MCMV gB gene (Rapp et al., 1992). […]. This gB gene primer pair amplifying a 356 bp segment was found the most sensitive in previous studies (Palmon et al., 1996). For gene amplification, 1 μg of DNA sample was added to the reaction mixture containing 200 μM each dNTP, 100 pmol each primer, 1.0 mM MgSO4, 10 mM KCl, 10 mM (NH4)2SO4, 20 mM Tris-HCl (pH 8.8), 0.1% Triton X-100 and 2 U of vent polymerase (Biolabs) in a total reaction volume of 50 μl each. Samples were amplified for 30 cycles in an automated thermal cycler (Perkin Elmer Cetus, USA). Each cycle entailed denaturation at 94° C. for 60 sec, annealing at 68° C. for 90 sec and primer extension at 72° C. for 120 sec. PCR products were electrophoretically separated on 1.5% agarose gel, stained with ethidium bromide, and photographed. The lower limit of detection for this method under the experimental conditions was 5 femtograms of viral DNA corresponding to about 20 copies of the MCMV genome (Palmon et al., 1996).
3-week old BALB/c mice were challenged i.p. with 5×10^4 pfu of MCMV (day 0). On day 6, mice were immunized once with IFA alone, 89pep or p458-89pep emulsified in IFA, as described above. Mice were treated with 100 μg of the anti viral medication Gancyclovir (GCV, Roche, Basel, Switzerland) i.p. on days 1, 2, 3, 4, 8, 9, 10 and 11 after challenge. Mice were sacrificed on day 30 after challenge and MCMV-DNA was measured by a PCR assay in the salivary glands, as specified above (FIG. 14A).

IVIG-IL (anti-WNV Abs) = assay: ELISA recognition of peptides by IVIG-IL; assay type: binding, human; settings: peptide 1 μg/well; IVIG-IL 1:40 dilution
Experimental: (§3) ELISA tests were performed according to the method described by Martin et al (Martin et al, 2000) with slight modifications. Briefly, microtiter plates were coated and incubated overnight at 4° C. with 100 μl of the different peptides (1 μg/well) or WNV antigen diluted 1:700 in coating buffer (NaHCO3, pH=9.6). After incubation, the coating buffer was decanted and the plates were washed twice in PBS containing 0.05% Tween 20 and 0.2% sodium azide (washing buffer). After blocking for 1 h with a 200 μl/wen of PBS containing 0.05% Tween 20 and 2.5% nonfat dry milk, the plates were washed 4 times in washing buffer and 100 μl of IVIG-IL or mouse sera at 1:40 dilution were added to each well (2-4 wells per sample). Negative and positive controls of human or mouse sera were tested in each plate. […] The color intensity was measured by ELISA-reader (Dynatec MR 5000) at the absorbance of 405 nm.
(§4) Next, it was examined whether the candidate epitope is recognized by a serum immunoglobulin pool taken from Israeli donors (IVIG-IL), which contains anti-WNV Abs. […] After blocking and washing, IVIG-IL was added at 1:40 dilution and binding was detected. […]

[7] = test system: serum from WNV-infected mice; assay: ELISA recognition of peptides by serum from WNV-infected mice; assay type: binding; settings: peptide 1 μg/well; sera 1:40 dilution
Experimental: as §3, §4

WNV = assay: Protective efficacy of immunization against WNV challenge (mortality); assay type: in vivo, BALB/c mice; settings: for Mortality (% deaths) / Mortality (dead of total): 3 immunizations, 10^6 pfu WNV, 21 days post challenge, 5 experiments

## EGDEATGANI-KVALEAYPHFHPTNL (EGDEATGANIKVALEAYPHFHPTNL) [control-89pep]
MCMV [1]; day 28 after MCMV challenge
  Effect of immunization on salivary gland viral load: did not affect the viral load

## KKARVEDALHATRAAVEEGVLVTVNPFVSVATANS [Ec27-p15]
splenocytes
  Proliferation of spleen cells in the presence of p15: more effective than p15 alone
IFN-γ
  IFN-γ secretion of spleen cells in the presence of p15: more effective than p15 alone

## YIVVGRGEQQINHHWHK [p17]
[2]
  Recognition by sera of WNV-exposed and unexposed human subjects: specifically recognized by WNV-exposed sera and not by sera from unexposed subjects

## NEDQKIGIEIIKRALKIYPHFHPTNL [p458-89pep]
MCMV [1]; day 28 after MCMV challenge
  Effect of immunization on salivary gland viral load: showed no infectious MCMV in the salivary gland
  Infectious MCMV titer in salivary gland: < 2 log10 pfu/0.1 g
MCMV gB DNA
  MCMV gB PCR product in salivary glands: failed to reveal any gB PCR product
IFNγ
  IFNγ secretion of spleen cells stimulated in vitro with p458: high levels of IFNγ
IFNγ; 3 d stimulation, 89pep 10 μg/ml
  IFNγ secretion of spleen cells re-stimulated in vitro with 89pep: significantly higher (p<0.05) levels of IFNγ
IL-4
  IL-4 levels after Con-A stimulation in vitro: 317 pg/mL
[3]
  IFNγ+CD4+ T cells in spleen cell cultures: no IFNγ^+CD4^+ T cells
  IFNγ+CD8+ T cells in spleen cell cultures: induced IFNγ^+CD8^+ T cells
[4]
  89pep-specific lytic (CTL) activity: lysed the target cells
[5]
  CD8+IFNγ+ cells in salivary gland: larger than that of the other groups
MCMV [6]
  CMV load at the salivary gland (MCMV-DNA PCR): reduced viral load to undetectable levels

## LVTVNPFVSVATANS [p15]
IVIG-IL (anti-WNV Abs)
  Recognition by IVIG-IL: recognized by IVIG-IL
[7]
  Recognition by serum from WNV-infected mice: specifically recognized
WNV
  Mortality (% deaths): (53%)
  Mortality (dead of total): 8/15
WNV; summary of 5 experiments
  Protective efficacy against WNV challenge: slight protective efficacy
[2]
  Recognition by sera of WNV-exposed and unexposed human subjects: specifically recognized by WNV-exposed sera and not by sera from unexposed subjects
[2]; data not shown
  Recognition by sera from Dengue-infected humans: did not recognize

## YPHFHPTNL [89pep]
MCMV [1]; day 28 after MCMV challenge
  Effect of immunization on salivary gland viral load: marginal advantage compared to IFA-immunized mice; also recorded: contained infectious virus on day 28 post challenge
  Infectious MCMV titer in salivary gland: 4.5 log10 pfu/0.1 g
IL-4
  IL-4 levels after Con-A stimulation in vitro: 146 pg/mL
[3]
  IFNγ+CD8+ T cells in spleen cell cultures: very few IFNγ^+CD8^+ T cells
[4]
  89pep-specific lytic (CTL) activity: No lytic activity was observed
[5]
  CD8+IFNγ+ cells in salivary gland: CD8^+IFNγ^+ cells were observed
MCMV [6]
  CMV load at the salivary gland (MCMV-DNA PCR): did not affect CMV load

## NEDQKIGIEIIKRALKI [p458]
IFNγ
  IFNγ secretion of spleen cells stimulated in vitro with p458: high levels of IFNγ
IL-4
  IL-4 levels after Con-A stimulation in vitro: 184 pg/mL
WNV
  Mortality (% deaths): (57%)
  Mortality (dead of total): 4/7

## Nc1nc(O)c2ncn(COC(CO)CO)c2n1 [GCV, Gancyclovir]
MCMV [6]
  CMV load at the salivary gland (MCMV-DNA PCR): did not suffice for therapy

## FNNFTVSFWLRVPKVSASHLEYPHFMPTNL [TTp30-89pep]
MCMV [1]; day 28 after MCMV challenge
  Effect of immunization on salivary gland viral load: reduced viral load on day 28 by two fold; also recorded: failed to eliminate infectious virus on day 28; also recorded: contained infectious virus on day 28 post challenge
MCMV [1]; days 14 and 21 after MCMV challenge
  Effect of immunization on salivary gland viral load: did not affect viral load on days 14 and 21
[5]
  CD8+IFNγ+ cells in salivary gland: CD8^+IFNγ^+ cells were observed
